Experimental findings from ChEMBL document CHEMBL3430912, “GSK Tres Cantos Anti-Kinetoplastid Screening (TCAKS) Data” are described below.

The structures appear in SMILES notation.

Data set [1] concerns Trypanosoma cruzi. The data set can be described thus: GSK_TCAKS: pIC50 Trypanosoma cruzi viability assay using beta-GAL activity. This assay was run at single shot at 5uM compound concentration per well. The biological reagents consisted of NIH-3T3 host cells and trypomastigotes parasitic cells; both cell types were set to a 3.3 * 10^5 cells/mL dilution in assay DMEM by means of a CASY cell counter device using a 60um capillary. 6 uL of the mixture were dispensed per well (about 1 * 10^3 host-cells and 1 * 10^3 parasites) with a Multidrop Combi dispenser. […] In all wells, the percentage of DMSO never exceeded 0.5%. Plates incubated for four days at 37C, 5% CO2. The substrate used for the assay fluorescence intensity (FLINT) readout was resorufin-beta-D-galactopiranoside (Sigma-Aldrich) at 5uM per well. It was diluted in PBS supplemented with the soft detergent Igepal (Fluka). The settings on record: Tulahuen, NIH3T3. Type of data set: functional, organism-based, Mus musculus.

The subject of data set [2] is Trypanosoma cruzi. Briefly: (§1) GSK_TCAKS: pIC50 Trypanosoma cruzi Imaging: Infected Cells. […] Cells were then washed once with PBS before infection. T. cruzi trypomastigotes, collected at days 5 to 8 after infection from LLC-MK2 parasite infected cultures, were allowed to swim out for 4h at 37C from a centrifuged pellet (2,500 rpm/10 min/room temperature). Trypomastigotes were then collected and counted in a CASY Cell Counter. Trypomastigotes, in supplemented DMEM, were added to H9c2 cultures in a multiplicity of infection of 1 and incubated for 18 h. Cells were washed once with PBS before incubation of the infected H9c2 monolayer with trypsin (Life-Technologies) to detach cells from the flask. Cells were counted in a CASY Cell Counter using a 150 um capillary and their density set at 5 * 10^4 cells per mL in supplemented assay DMEM. Infected H9c2 were dispensed into 384-well poly-lysine coated assay plates at 50uL per well using a Multidrop Combi dispenser. After seeding them, the plates were incubated at 37C, 5% CO2 for 72h. Cultures were then fixed and stained by addition of 50 uL of a solution containing 8% formaldehyde and 4 uM DRAQ5 DNA dye (BioStatus, UK) per well. […] Five images were collected per well for reliable statistical analysis. Automated image analysis was performed with a script developed on Acapella High Content Imaging and Analysis Software (PerkinElmer). Output: percentage of infected cells per well as a second infection marker. Type of data set: functional, organism-based, Rattus norvegicus. The settings on record: H9c2, 4 h.

The test system of data set [3] is Trypanosoma cruzi. The data set can be described thus: GSK_TCAKS: pIC50 Trypanosoma cruzi Imaging: Amastigotes/Cell. […] Cells were then washed once with PBS before infection. T. cruzi trypomastigotes, collected at days 5 to 8 after infection from LLC-MK2 parasite infected cultures, were allowed to swim out for 4h at 37C from a centrifuged pellet (2,500 rpm/10 min/room temperature). Trypomastigotes were then collected and counted in a CASY Cell Counter. Trypomastigotes, in supplemented DMEM, were added to H9c2 cultures in a multiplicity of infection of 1 and incubated for 18 h. Cells were washed once with PBS before incubation of the infected H9c2 monolayer with trypsin (Life-Technologies) to detach cells from the flask. Cells were counted in a CASY Cell Counter using a 150 um capillary and their density set at 5 * 10^4 cells per mL in supplemented assay DMEM. Infected H9c2 were dispensed into 384-well poly-lysine coated assay plates at 50uL per well using a Multidrop Combi dispenser. After seeding them, the plates were incubated at 37C, 5% CO2 for 72h. Cultures were then fixed and stained by addition of 50 uL of a solution containing 8% formaldehyde and 4 uM DRAQ5 DNA dye (BioStatus, UK) per well. […] Five images were collected per well for reliable statistical analysis. Automated image analysis was performed with a script developed on Acapella High Content Imaging and Analysis Software (PerkinElmer). Output: number of amastigotes per cell as infection level measurement. Type of data set: functional, organism-based, Rattus norvegicus. The settings on record: H9c2, 4 h.

Data set [4] deals with Trypanosoma cruzi. Described as §1, with “H2C9” for “Trypanosoma cruzi”, “H9c2 Host Cardiomyocytes.” for “Infected Cells.”, “Number” for “percentage”, “H9c2 Host Cardiomyocytes nuclei to determine drug-related cytotoxicity.” for “infected cells per well as a second infection marker.”. Type of data set: functional, organism-based, Rattus norvegicus. The settings on record: H9c2, 4 h.

Data set [5] deals with Leishmania donovani. Briefly: GSK_TCAKS: pIC50 Leishmania donovani viability assay using fluorescence intensity. Assay plates (1536-well) were prepared by adding 30nL per well of compound. For single shot assay, the final compound concentration was 5uM. […] Briefly, eGFP LdBOB axenic amastigotes were harvested, fixed and counted in a CASY cell counter (Roche-Applied Science). A final concentration of 1.5 * 10^5 cells per well were prepared in amastigote media containing 500 U/mL penicillin/streptomycin (Invitrogen) and 6uL was dispensed to each experimental well using a Multidrop Combi dispenser (Thermo Scientific). 6uL of assay media was dispensed to control columns used as reference for 100% compound response. Following incubation for 72 h at 37C, 5% CO2, 2 uL of resazurin was added to each well at a final concentration of 0.5 mM in phosphate buffered saline (PBS) with IGEPAL (Sigma-Aldrich), 0.05% (v/v). Type of data set: functional, organism-based.

Data set [6] has as its system Leishmania donovani. Briefly: GSK_TCAKS: pIC50 Leishmania donovani Imaging: Infected Macrophages. Assay plates (384-well) were prepared by adding 250nL of compound to each well. For single shot assay, the final compound concentration was 5 uM. […] Automated image analysis was performed with a script developed on Acapella High Content Imaging and Analysis Software (PerkinElmer). Output: Percent of infected macrophage cells were reported for each well. Type of data set: functional, organism-based, Homo sapiens. The settings on record: THP-1.

The test system of data set [7] is Leishmania donovani. The data set can be described thus: GSK_TCAKS: pIC50 Leishmania donovani Imaging: Amastigotes/Macrophages. Assay plates (384-well) were prepared by adding 250nL of compound to each well. For single shot assay, the final compound concentration was 5 uM. […] Automated image analysis was performed with a script developed on Acapella High Content Imaging and Analysis Software (PerkinElmer). Output: Average number of amastigotes per macrophage cell were reported for each well. The settings on record: THP-1. Type of data set: functional, organism-based, Homo sapiens.

For data set [8], the system named is Leishmania donovani. Briefly: GSK_TCAKS: pIC50 Leishmania donovani Imaging: THP-1 Host Macrophages. Assay plates (384-well) were prepared by adding 250nL of compound to each well. For single shot assay, the final compound concentration was 5 uM. […] Automated image analysis was performed with a script developed on Acapella High Content Imaging and Analysis Software (PerkinElmer). Output: THP-1 cell count were reported for each well. Type of data set: functional, organism-based, Homo sapiens.

Data set [9] has as its system Trypanosoma brucei brucei. Briefly: GSK_TCAKS: pIC50 Trypanosoma brucei viability assay using fluorescence intensity. Assay plates (1536-well) were prepared by dispensing 25nL of compound solution per well using an Echo acoustic dispenser (Labcyte). Type of data set: functional, organism-based. The settings on record: Lister 427, 2 h.
Data set [10] relates to Trypanosoma brucei brucei. The data set can be described thus: GSK_TCAKS: pIC50 Trypanosoma brucei viability assay using luminiscence. Assay plates (1536-well) were prepared. T. brucei cultures were harvested and counted in a CASY cell counter. A parasite suspension was prepared at a final concentration of 5 * 10^4 cells/mL in complete HMI9 medium and 6uL was dispensed to all wells containing compounds using a Multidrop Combi dispenser. 6uL of HMI9 media with 0.4% DMSO were dispensed to control columns. Plates were incubated for 24 h at 37C, 5% CO2 then tempered for 10 min at room temperature. ATP content was quantified by adding 4 uL of CellTiter-Glo Reagent (Promega) according to the manufacturer's instructions. Luminescence was measured using a ViewLux. Type of data set: functional, organism-based. The settings on record: Lister 427, CASY.

Data set [11] is described as follows: GSK_TCAKS: pIC50 HepG2 human cell line viability assay using luminiscence. […] Seeding density was checked to ensure that new mono-layers were not more than 50% confluent at the time of harvesting. Cell suspension was added to 500 mL of the same medium at a final density of 1.2 * 10^5 cells/mL. This cell suspension was dispensed (25 uL, 3000 cells per well) into 384-well clear-bottom plates using a Multidrop Combi dispenser. Prior to addition of the cell suspension, the screening compounds (250 nL) were pre-dispensed into the plates with an Echo liquid handler. Plates were incubated for 48 h at 37C, 5% CO2. After incubation, plates equilibrated at room temperature for 30 min before proceeding to develop the luminescent signal. The signal developer, CellTiter-Glo Reagent, was allowed to equilibrate at room temperature for 30 min and added to the plates (25uL per well) using a Multidrop Combi dispenser. Plates were left for 10 min at room temperature for stabilization and then read using a ViewLux. Type of data set: toxicity, cell-based. For orientation: In ATP-based viability assays light output follows the ATP content of the culture.

Data set [12] addresses Sterol 14-alpha demethylase (Trypanosoma cruzi (strain CL Brener), UniProt Q7Z1V1). Briefly: GSK_TCAKS: pIC50 CYP51 from Trypanosoma cruzi. Type of data set: functional.

Sequence of Sterol 14-alpha demethylase (Q7Z1V1 whole entry): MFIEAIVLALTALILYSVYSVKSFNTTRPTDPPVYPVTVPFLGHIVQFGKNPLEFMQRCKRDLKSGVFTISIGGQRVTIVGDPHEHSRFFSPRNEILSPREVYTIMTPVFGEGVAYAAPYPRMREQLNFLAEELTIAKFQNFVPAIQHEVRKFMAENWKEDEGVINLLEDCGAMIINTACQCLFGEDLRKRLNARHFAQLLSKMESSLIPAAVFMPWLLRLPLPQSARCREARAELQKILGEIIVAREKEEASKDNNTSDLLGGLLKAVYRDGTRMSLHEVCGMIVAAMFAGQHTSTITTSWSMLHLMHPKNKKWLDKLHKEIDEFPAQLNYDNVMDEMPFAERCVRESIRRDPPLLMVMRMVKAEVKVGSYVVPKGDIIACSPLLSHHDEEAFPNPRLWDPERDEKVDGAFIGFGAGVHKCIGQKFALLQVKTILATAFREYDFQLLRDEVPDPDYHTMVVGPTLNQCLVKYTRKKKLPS

The term IC50 denotes the concentration needed to halve the response being measured. `O=C(CSc1nnc2ccc(-c3ccc(F)cc3)nn12)N1CCCCC1`: the IC50 in the data set with Trypanosoma cruzi [1] is 2.51 µM; with Trypanosoma cruzi [2] it was 2 µM; in the data set on Trypanosoma cruzi [3] it was 1 µM; with Trypanosoma cruzi [4] it was over 50.1 µM; in the data set with Leishmania donovani [5], over 50.1 µM; in the data set with Leishmania donovani [6], over 50.1 µM. The IC50 was over 50.1 µM in the data set with Leishmania donovani [7]; 6.31 µM in the data set with Leishmania donovani [8]; 0.398 µM in [9]; 0.501 µM in [10]; over 100 µM in [12]. In data set [11], this compound gave an IC50 at 48 h of over 100 µM.
`CC(C)(C)CC(=O)NCCc1csc(-c2ccc(F)cc2)n1`: the IC50 with Trypanosoma cruzi [1] was 1.26 µM; in the data set with Trypanosoma cruzi [2] it was 1 µM; in the data set with Trypanosoma cruzi [3] it was 0.794 µM; in the data set with Trypanosoma cruzi [4], over 50.1 µM; with Leishmania donovani [5], over 50.1 µM; in the data set with Leishmania donovani [6] it was 31.6 µM. Further, the IC50 was 15.8 µM with Leishmania donovani [7]; 15.8 µM in the data set with Leishmania donovani [8]; 0.631 µM in [9]; 0.501 µM in data set [10]; 20 µM in [12]. Moreover, the IC50 at 48 h in data set [11] is over 100 µM.
In the case of `O=C(NC(CO)c1ccc(F)cc1)c1ccc(-c2c[nH]c3ncccc23)s1` (configuration not stated), the IC50 in the data set on Trypanosoma cruzi [1] was 10 µM; in the data set with Trypanosoma cruzi [2], 15.8 µM; in the data set with Trypanosoma cruzi [3] it was 12.6 µM; with Trypanosoma cruzi [4], 3.98 µM; in the data set with Leishmania donovani [5], 31.6 µM; in the data set with Leishmania donovani [6], 25.1 µM. The IC50 in the data set on Leishmania donovani [7] was 20 µM; in the data set with Leishmania donovani [8], 10 µM; in data set [9], 0.251 µM; in [10], 0.794 µM; in [12], 1.26 µM. In data set [11], this compound had an IC50 at 48 h of 39.8 µM.
Take `Nc1nc(-c2ccccc2)cc(-c2nc3cccnc3[nH]2)n1`: the IC50 in the data set on Trypanosoma cruzi [1] was 3.16 µM; in the data set on Trypanosoma cruzi [2] it was 2 µM; in the data set with Trypanosoma cruzi [3], 1.58 µM; in the data set with Trypanosoma cruzi [4], 12.6 µM; in the data set with Leishmania donovani [5], 3.98 µM; in the data set on Leishmania donovani [6], 2.51 µM. Also, the IC50 in the data set with Leishmania donovani [7] was 2.51 µM; in the data set with Leishmania donovani [8], over 50.1 µM; in data set [9] it was 10 µM; in data set [10], 15.8 µM; in data set [12] it was over 100 µM. Further, half-maximal inhibition in [11] (IC50 at 48 h) was put at 39.8 µM.
With `CN(C)S(=O)(=O)c1cccc(CSc2nnc(-c3ccc4c(c3)OCO4)o2)c1`, the IC50 in the data set on Trypanosoma cruzi [1] is 0.501 µM; in the data set on Trypanosoma cruzi [2], 0.1 µM; with Trypanosoma cruzi [3], 0.0501 µM; with Trypanosoma cruzi [4] it was over 50.1 µM; with Leishmania donovani [5], 1 µM; in the data set on Leishmania donovani [6], 2 µM. Further, the IC50 in the data set with Leishmania donovani [7] is 0.631 µM; with Leishmania donovani [8] it was over 50.1 µM; in [9], 31.6 µM; in data set [10], over 39.8 µM; in data set [12] it was 12.6 µM. In data set [11], the IC50 at 48 h is over 100 µM.
As to `N#CN1CC[C@@H](NC(=O)Nc2ccccc2Oc2ccccc2)C1`, the IC50 in the data set with Trypanosoma cruzi [1] is 5.01 µM; in the data set on Trypanosoma cruzi [2], 3.98 µM; with Trypanosoma cruzi [3] it was 5.01 µM; in the data set on Trypanosoma cruzi [4] it was 20 µM; in the data set with Leishmania donovani [5], 3.16 µM; in the data set with Leishmania donovani [6] it was 5.01 µM. The IC50 in the data set with Leishmania donovani [7] is 3.98 µM; with Leishmania donovani [8], 25.1 µM; in [9] it was 1 µM; in [10] it was 7.94 µM; in data set [12] it was over 100 µM. Moreover, half-maximal inhibition in [11] (IC50 at 48 h) required 39.8 µM.
